Several values for one entry are separate records, joined by “and”; a condition that tells them apart may be missing. Equal entries are not always repeated. Activity calls are given as the source filed them. The calls are words filed in the database; no cut-off is given here.
Key:
[1] = Antioxidant activity assessed as DPPH radical scavenging activity incubated for 30 mins; format: functional
[2] = Antioxidant activity assessed as ABTS radical scavenging activity; format: functional
[3] = Inhibition of alpha-glucosidase (unknown origin); parameters: species or system Homo sapiens
[4] = target: T1, Acetylcholinesterase (Homo sapiens, UniProt P22303); assay: Inhibition of AChE (unknown origin)
T1 sequence (P22303 whole entry): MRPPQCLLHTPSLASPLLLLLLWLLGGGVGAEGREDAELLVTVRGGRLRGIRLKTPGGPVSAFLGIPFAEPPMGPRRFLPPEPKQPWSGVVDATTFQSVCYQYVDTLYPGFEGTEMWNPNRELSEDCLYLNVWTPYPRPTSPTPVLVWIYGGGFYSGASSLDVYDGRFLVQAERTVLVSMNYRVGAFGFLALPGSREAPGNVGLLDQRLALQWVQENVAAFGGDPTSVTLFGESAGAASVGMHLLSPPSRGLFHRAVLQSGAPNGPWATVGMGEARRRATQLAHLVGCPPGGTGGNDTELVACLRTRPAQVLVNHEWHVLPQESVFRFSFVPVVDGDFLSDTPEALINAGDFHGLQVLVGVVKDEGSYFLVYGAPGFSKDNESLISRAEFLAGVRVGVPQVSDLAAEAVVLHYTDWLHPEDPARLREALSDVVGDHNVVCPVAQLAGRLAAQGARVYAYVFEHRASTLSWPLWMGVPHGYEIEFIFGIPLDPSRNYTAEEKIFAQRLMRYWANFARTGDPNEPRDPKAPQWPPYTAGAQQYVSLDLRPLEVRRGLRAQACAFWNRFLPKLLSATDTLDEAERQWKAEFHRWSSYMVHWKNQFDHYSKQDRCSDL

[5] = target: Cholinesterase (Homo sapiens, UniProt P06276); assay: Inhibition of BchE (unknown origin)
Chain of Cholinesterase (P06276 whole entry): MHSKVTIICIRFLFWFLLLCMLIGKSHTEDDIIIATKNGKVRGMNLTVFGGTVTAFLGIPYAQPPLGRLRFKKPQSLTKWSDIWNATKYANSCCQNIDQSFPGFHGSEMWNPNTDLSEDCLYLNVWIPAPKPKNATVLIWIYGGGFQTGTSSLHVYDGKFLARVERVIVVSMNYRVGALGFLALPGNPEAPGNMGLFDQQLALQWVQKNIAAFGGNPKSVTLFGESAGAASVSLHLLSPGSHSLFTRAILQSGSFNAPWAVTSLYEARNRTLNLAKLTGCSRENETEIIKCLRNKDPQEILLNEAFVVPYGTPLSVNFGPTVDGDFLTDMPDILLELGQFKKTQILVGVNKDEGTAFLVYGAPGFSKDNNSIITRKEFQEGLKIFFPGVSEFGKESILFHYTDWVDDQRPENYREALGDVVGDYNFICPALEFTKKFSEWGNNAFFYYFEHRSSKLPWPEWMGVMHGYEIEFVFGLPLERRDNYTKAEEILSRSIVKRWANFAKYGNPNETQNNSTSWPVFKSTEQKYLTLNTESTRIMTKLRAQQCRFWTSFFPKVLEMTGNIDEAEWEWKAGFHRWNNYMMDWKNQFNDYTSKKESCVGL

[6] = Acute toxicity in BALB/c mouse upto 100 mg/kg, ip administered for 72 hrs and measured after 14 days; format: organism-based; settings: in vivo, 408 h, time 17 day
[7] = tested on: Rattus norvegicus; assay: Anti-diabetic activity in STZ-induced diabetic Sprague-Dawley rat model assessed as change in blood glucose level at 9 mg/kg, ip measured for 28 days; format: functional, organism-based; settings: time 28.0 day
[8] = tested on: Rattus norvegicus; assay: Anti-diabetic activity in STZ-induced diabetic Sprague-Dawley rat model assessed as reduction in blood glucose level at 9 mg/kg, ip measured at day 1 (reference value: 494.14 +/- 4.15 mg/dl); format: functional; settings: time 1 day
[9] = tested on: Rattus norvegicus; assay: Anti-diabetic activity in STZ-induced diabetic Sprague-Dawley rat model assessed as reduction in blood glucose level at 9 mg/kg, ip measured at day 7 (reference value: 490.69 +/- 3.98 mg/dl); format: functional; settings: time 7 day
[10] = tested on: Rattus norvegicus; assay: Anti-diabetic activity in STZ-induced diabetic Sprague-Dawley rat model assessed as reduction in blood glucose level at 9 mg/kg, ip measured at day 14 (reference value: 489.44 +/- 4.18 mg/dl); format: functional; settings: time 14 day
[11] = tested on: Rattus norvegicus; assay: Anti-diabetic activity in STZ-induced diabetic Sprague-Dawley rat model assessed as reduction in blood glucose level at 9 mg/kg, ip measured at day 21 (reference value: 503.09 +/- 4.15 mg/dl); format: functional; settings: time 21 day
[12] = tested on: Rattus norvegicus; assay: Anti-diabetic activity in STZ-induced diabetic Sprague-Dawley rat model assessed as reduction in blood glucose level at 9 mg/kg, ip measured at day 28 (reference value: 501.71 +/- 3.91 mg/dl); format: functional; settings: time 28 day
[13] = tested on: Rattus norvegicus; assay: Anti-diabetic activity in STZ-induced diabetic Sprague-Dawley rat model assessed as increase in body weight at 9 mg/kg, ip measured at day 1; format: functional, organism-based; settings: time 1.0 day
[14] = tested on: Rattus norvegicus; assay: Anti-diabetic activity in STZ-induced diabetic Sprague-Dawley rat model assessed as increase in body weight at 9 mg/kg, ip measured at day 14; format: functional, organism-based; settings: time 14.0 day
[15] = tested on: Rattus norvegicus; assay: Anti-diabetic activity in STZ-induced diabetic Sprague-Dawley rat model assessed as increase in body weight at 9 mg/kg, ip measured at day 28; format: functional, organism-based; settings: time 28.0 day
[16] = tested on: Rattus norvegicus; assay: Anti-diabetic activity in STZ-induced diabetic Sprague-Dawley rat model assessed as reduction in cholesterol level in plasma at 9 mg/kg, ip (reference value: 218 +/- 4.41 mg/dl); format: functional
[17] = tested on: Rattus norvegicus; assay: Anti-diabetic activity in STZ-induced diabetic Sprague-Dawley rat model assessed as reduction in TG level in plasma at 9 mg/kg, ip (reference value: 226.19 +/- 3.97 mg/dl); format: functional
[18] = tested on: Rattus norvegicus; assay: Anti-diabetic activity in STZ-induced diabetic Sprague-Dawley rat model assessed as reduction in LDL level in plasma at 9 mg/kg, ip (reference value: 138.19 +/- 3.67 mg/dl); format: functional
[19] = tested on: Rattus norvegicus; assay: Anti-diabetic activity in STZ-induced diabetic Sprague-Dawley rat model assessed as reduction in HDL level in plasma at 9 mg/kg, ip (reference value: 21.09 +/- 1.71 mg/dl); format: functional
[20] = species: Homo sapiens; assay: Competitive inhibition of alpha-glucosidase (unknown origin) […] using p-nitrophenyl glucopyranoside as substrate assessed as increase in Km with constant Vmax upto 180 uM using varying concentrations of substrate measured for 20 mins by Lineweaver-Burk plot analysis
[21] = Inhibition of alpha-glucosidase (unknown origin) using p-nitrophenyl glucopyranoside as substrate assessed as inhibition constant by Lineweaver-Burk plot analysis; parameters: species or system Homo sapiens
[22] = target: T1, Acetylcholinesterase; assay: Mixed type inhibition of AChE (unknown origin) using […] assessed as effect on Vmax and Km at 1.95 to 7.8 uM by Lineweaver-Burk plot analysis; settings: dose 1.95-7.8 µM
[23] = target: T1, Acetylcholinesterase; assay: Inhibition of AChE (unknown origin) using […] assessed as inhibition constant by Lineweaver-Burk plot analysis

Structure (SMILES) | IC50 [1] | IC50 [2] | IC50 [3] [nM] | IC50 [4] [nM] | IC50 [5] [nM] | Activity [6] | Activity [7] | Activity [8] [mg/dL] | Activity [9] [mg/dL] | Activity [10] [mg/dL] | Activity [11] [mg/dL] | Activity [12] [mg/dL] | Activity [13] | Activity [14] | Activity [15] | Activity [16] [mg/dL] | Activity [17] [mg/dL] | Activity [18] [mg/dL] | Activity [19] [mg/dL] | further results
CCOC(=O)C1=C(Nc2cccc(F)c2)CC(c2ccc(C(F)(F)F)cc2)N(c2cccc(F)c2)C1c1ccc(C(F)(F)F)cc1 (stereo not drawn) | 814 nM | 629 nM | 220 | 1190 | 1270 | Non-Toxic | Active | 495.39 | 422.69 | 334.29 | 240.19 | 152.61 | Active | Active | Active | 78.67 | 93.71 | 51.22 | 31.06 | –
CCOC(=O)C1=C(Nc2ccc(F)cc2)CC(c2cccc(F)c2)N(c2ccc(F)cc2)C1c1cccc(F)c1 (stereo not drawn) | 950 nM | 562 nM | 457 | 1120 | 1330 | – | – | – | – | – | – | – | – | – | – | – | – | – | – | –
Cc1c(C)c2c(c(C)c1O)CCC(C)(C(=O)O)O2 (stereo not drawn) [TROLOX] | – | 28 nM | – | – | – | – | – | – | – | – | – | – | – | – | – | – | – | – | – | –
C[C@H]1O[C@H](O[C@H]2[C@H](O)[C@@H](O)[C@@H](O[C@H]3[C@H](O)[C@@H](O)C(O)O[C@@H]3CO)O[C@@H]2CO)[C@H](O)[C@@H](O)[C@@H]1N[C@H]1C=C(CO)[C@@H](O)[C@H](O)[C@H]1O (stereo partly drawn) [ACARBOSE] | – | – | 28700 | – | – | – | – | – | – | – | – | – | – | – | – | – | – | – | – | –
O=C1O[C@H]([C@@H](O)CO)C(O)=C1O [ASCORBIC ACID] | 640 nM | – | – | – | – | – | – | – | – | – | – | – | – | – | – | – | – | – | – | –
CCOC(=O)C1=C(Nc2ccc(F)cc2)CC(c2ccc(Cl)cc2)N(c2ccc(F)cc2)C1c1ccc(Cl)cc1 (stereo not drawn) | 1320 nM | 461 nM | 291 | 916 | 1020 | Non-Toxic | Active | 498.7 | 427.82 | 349.78 | 244.27 | 167.81 | Active | Active | Active | 87.96 | 104.2 | 61.39 | 28.09 | –
CCOC(=O)C1=C(Nc2cccc(F)c2)CC(c2ccc(Cl)cc2)N(c2cccc(F)c2)C1c1ccc(Cl)cc1 (stereo not drawn) | 983 nM | 712 nM | 384 | 1270 | 1700 | – | – | – | – | – | – | – | – | – | – | – | – | – | – | –
CCOC(=O)C1=C(Nc2ccc(F)cc2)CC(c2ccc(C(F)(F)F)cc2)N(c2ccc(F)cc2)C1c1ccc(C(F)(F)F)cc1 (stereo not drawn) | 633 nM | 167 nM | 176 | 932 | 1020 | Non-Toxic | Active | 497.98 | 417.55 | 320.81 | 231.77 | 138.56 | Active | Active | Active | 75.05 | 91.96 | 47.51 | 33.51 | inhibition [20]: Active; Ki [21]: 117000 nM
CCOC(=O)C1=C(Nc2cccc(F)c2)CC(c2ccc(F)cc2)N(c2cccc(F)c2)C1c1ccc(F)cc1 (stereo not drawn) | 1100 nM | 519 nM | 367 | 1420 | 1990 | – | – | – | – | – | – | – | – | – | – | – | – | – | – | –
CCOC(=O)C1=C(Nc2ccccc2)CC(c2ccc(F)cc2)N(c2ccccc2)C1c1ccc(F)cc1 (stereo not drawn) | 1050 nM | 216 nM | 473 | 1360 | 1280 | – | – | – | – | – | – | – | – | – | – | – | – | – | – | –
CCOC(=O)C1=C(Nc2ccc(F)cc2)CC(c2ccc(F)cc2)N(c2ccc(F)cc2)C1c1ccc(F)cc1 (stereo not drawn) | 691 nM and 690 nM | 22 nM and 20 nM | 251 | 774 | 739 | Non-Toxic | Active | 501.12 | 419.93 | 341.51 | 256.71 | 159.45 | Active | Active | Active | 91.16 | 97.65 | 59.16 | 27.73 | inhibition [22]: Active; Ki [23]: 2050 nM
